Reference: patent publication US20250002464A1, “NOVEL COMPOUND AND PHARMACEUTICAL COMPOSITION COMPRISING SAME” (SAPIENSBIO INC., priority 2021, published 2025)

Legend:
[1] = clinical use in IPF patients; cited from earlier work
fibronectin = fibronectin protein level by Western blotting in TGF-β1-treated fibroblasts; assay type: cell-based; conditions: MRC5 cells, 5, 10, or 20 μM, TGF-β1 (10 ng/mL), 70 hours
Source text: (§1) α-SMA protein is a marker of activated myofibroblasts, which are the main effector cells of fibrosis, myofibroblasts with increased α-SMA expression are known to produce a fibrotic protein such as collagen type 1 and cause fibrosis. Therefore, in this example, it was confirmed whether the compound according to the present invention is effective in inhibiting fibrosis by reducing the expression of α-SMA and other pro-fibrotic factors (COL1A1, COL4A1, fibronectin, and p-SMAD2).
(§2) Specifically, lung tissue-derived fibroblasts, MRC5 cells, were treated with Compound 59 according to the present invention (5, 10, or 20 μM), nintedanib (1 μM), or DMSO, and then 2 hours later, treated with TGF-β1 (10 ng/mL). After 70 hours, the cells were lysed in RIPA buffer (50 mM Tris-HCl, 150 mM NaCl, 1% NP-40, 0.5% sodium deoxycholate, 0.1% SDS, protease inhibitor & phosphatase inhibitor cocktail, pH 8.0), which had been cooled to 4° C. The cell lysate was centrifuged at 4° C. at a speed of 15,000×g for 30 minutes, and then the supernatant was collected. After matching the total amount of proteins in the supernatant of each sample (15 to 30 μg), the proteins were separated according to molecular weight using SDS polyacrylamide gel electrophoresis (SDS-PAGE). […]

MCR5 cell line = assay: intracellular F-actin polymerization, TGF-β1-treated cells, confocal microscope; assay type: cell-based; conditions: 10 μM along with TGF-β1 (10 ng/mL), 48 hours (FIGS. 2A and 2B)
Source text: F-actin polymerization activates transcription factors involved in the activation of myofibroblasts and the initiation of fibrosis. Accordingly, when F-actin polymerization decreases, the expression of fibrosis-causing genes by the transcription factors may be inhibited, and the activation and fibrosis of muscle fiber cells may be reduced. Therefore, in this example, it was confirmed whether the compounds according to the present invention are effective in inhibiting F-actin polymerization.
An MCR5 cell line was dispensed at 1×10^3 cells/well in a 96-well black micro plate and cultured in Medium 1 (10% FBS-containing MEM) in 5% CO2 at 37° C. for 24 hours. Subsequently, the above medium was exchanged with Medium 2 (0.5% FBS-containing MEM), a compound of the present invention was treated at 10 μM along with TGF-β1 (10 ng/mL), and the cells were incubated for 48 hours. After removing the entire batch, the cells were treated with each of CellMask Orange Actin Tracking Stain (Invitrogen) and NucBlue Live ReadyProbes (Invitrogen) to performing F-actin and cell nucleus staining in accordance with the manufacturer's recommended conditions. Cells treated with the staining reagents were incubated for 30 minutes at 5% CO2 and 37° C. while blocking light. After completing the incubation, the staining reagents were removed, fresh Medium 1 was added to the cells at 100 μL/well, and then the cells were incubated for 5 minutes, followed by removal of the medium. The above process was repeated three times. To observe the stained F-actin and cell nucleus, PBS was added to the plate at 100 μL/well, and then the cells were photographed using a confocal microscope (Leica) and analyzed using Image J software.

COL1A1 = COL1A1 protein level by Western blotting in TGF-β1-treated fibroblasts; assay type: cell-based; conditions: MRC5 cells, 5, 10, or 20 μM, TGF-β1 (10 ng/mL), 70 hours
Source text: as §1, §2

p-SMAD2 = assay: phosphorylation of SMAD2 by Western blotting in TGF-β1-treated fibroblasts; assay type: cell-based; conditions: TGF-β1 (10 ng/mL), 70 hours
Source text: as §1, §2

Arp2/3 complex = assay: in vitro actin polymerization test (pyrene-labeled actin); assay type: biochemical; conditions: 10 μM, VCA domain protein, spherical actin monomers, 1 hour, compared to control (FIG. 1)
Description: Although actin polymerization, which is a process of forming actin filaments from actin monomers, is involved in controlling cell movement, tissue fibrosis may be caused by the promotion of excessive α-SMA expression and induction of myofibroblast activation. Accordingly, an in vitro actin polymerization test was performed to confirm the actin polymerization controlling function of the compounds according to the present invention.
Specifically, a pyrene-labeled spherical actin stock was diluted with general actin buffer (5 mM Tris-HCl pH 8.0, 0.2 mM CaCl2)) and incubated at 4° C. for 1 hour, thereby producing spherical actin monomers. Afterward, 80% of a supernatant was recovered by centrifugation at 20,000×g and 4° C. for 3 hours, and 0.1 mg/mL spherical actin monomers were prepared. The Arp2/3 complex, the VCA domain protein, and Compound 12, 38, or 59 (10 μM each) according to the present invention were added to the spherical actin monomers and an actin polymerization buffer and reacted at room temperature for 1 hour. The increased fluorescence intensity during the reaction from the spherical actin monomer to a fibrous actin polymer was measured using a microplate reader at an excitation wavelength of 360 nm and an emission wavelength of 407 nm. The degree of actin polymerization was shown relative to the maximum polymerization rate (arbitrary units).

α-SMA [2] = assay: α-SMA expression inhibitory ability in MRC5 cell line (Western blotting); assay type: cell-based; conditions: TGF-β1 (10 ng/mL), 72 hours, relative to TGF-β1 only
In short: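 MRC5 cells given compound at 10 μM, then TGF-β1 (10 ng/mL) 2 h later; after 72 h, lysates probed for α-SMA by Western blot. Inhibition is α-SMA level relative to TGF-β1 alone, binned A ≥70%, B 50–<70%, C <50%.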

α-SMA [3] = assay: α-SMA protein level by Western blotting in TGF-β1-treated fibroblasts; assay type: cell-based; conditions: MRC5 cells, 5, 10, or 20 μM, TGF-β1 (10 ng/mL), 70 hours
Source text: as §1, §2

COL4A1 = COL4A1 protein level by Western blotting in TGF-β1-treated fibroblasts; assay type: cell-based; conditions: MRC5 cells, 5, 10, or 20 μM, TGF-β1 (10 ng/mL), 70 hours
Source text: as §1, §2

| SMILES | intracellular F-actin polymerization (MCR5 cell line) | actin polymerization activity (maximum polymerization rate) (Arp2/3 complex) | inhibition at 10 µM (α-SMA [2]) [%] | also measured |
| --- | --- | --- | --- | --- |
| Cc1ccc(=O)n(-c2ccccc2)c1 [Pirfenidone] | – | – | – | improvement in lung function (treatment effect) in IPF [1]: about 10% |
| CC(C(=O)N1CCN(c2ccccc2)c2ccccc21)N1CCCC[C@H]1C (stereo partly drawn) [Compound 59, 2-((R)-2-methylpiperidin-1-yl)-1-(4-phenyl-3,4-dihydroquinoxaline-1(2H)-yl)propan-1-one phosphate] | significantly reduced | decreased compared to the control | < 50 | fibronectin protein level (fibronectin): greatly decreased; COL1A1 protein level (COL1A1): greatly decreased; phosphorylation of SMAD2 protein (p-SMAD2; MRC5 cells, 5, 10, or 20 μM): decreased in a concentration-dependent manner; phosphorylation of SMAD2 protein compared to nintedanib (p-SMAD2; MRC5 cells, compared to nintedanib (1 μM)): reduced to a greater extent; α-SMA protein level (α-SMA [3]): significantly decreased; COL4A1 protein level (COL4A1): greatly decreased |
| CC(C(=O)N1CCN(c2ccccc2)c2cc(F)ccc21)N1CCCCC1 (centres unmarked) [Compound 12, 1-(6-fluoro-4-phenyl-3,4-dihydroquinoxaline-1(2H)-yl)-2-(piperidin-1-yl)propan-1-one] | significantly reduced | decreased compared to the control | ≥ 70 | – |
| O=C(CCN1CCCCC1)N1CCN(c2ccc(F)cc2)c2cc(F)ccc21 [Compound 38, 1-(6-fluoro-4-(4-fluorophenyl)-3,4-dihydroquinoxaline-1(2H)-yl)-3-(piperidin-1-yl)propan-1-one] | significantly reduced | decreased compared to the control | ≥ 70 | – |
| N[C@@H](Cc1c[nH]cn1)C(=O)N1CCN(c2ccc(F)cc2)c2cc(F)ccc21 [Compound 47, (S)-2-amino-1-(6-fluoro-4-(4-fluorophenyl)-3,4-dihydroquinoxaline-1(2H)-yl)-3-(1H-imidazol-4-yl)propan-1-one] | – | – | 50 to 70 | – |
